From patent publication US20260275323A1, “FULLY GENETICALLY ENCODED NAD+PROTEIN PROBE BASED ON RESONANCE ENERGY TRANSFER,AND PREPARATION METHOD THEREFOR AND USE THEREOF” (SHENZHEN INSTITUTES OF ADVANCED TECHNOLOGY, priority 2021, published 2026) come the findings set out here.

For assay [1], the system named is HEK293 stably transfected cell line. Put plainly: Intracellular NAD+ change in HEK293 cell line stably expressing probe NADS1.0 (590/440 emitted light ratio). It is filed as cell-based. Particulars: final concentration 10 nM, 24 h treatment. The method, then:
The NAD+ molecular probe provided by the invention can detect changes in the concentration of NAD+ molecules in cells. The coding gene of this probe (NADS1.0) is cloned into the pCDH-CMV-MCS-EF1-Neo vector, and the HEK293 stably transfected cell line is prepared using lentiviral method. […] After 24 h of treatment with the compounds, the DMEM medium (high sugar, phenol red free) is changed to fresh DMEM medium (high sugar, phenol red free, bioluminescent substrate diluted by 1,000-fold) with bioluminescent substrate. The emitted light intensity at 590 nm and 440 nm is measured using Flex Station3 multifunctional microplate reader. According to the detection principle of the probe, the ratio of emitted light intensity at 590 nm and 440 nm indicates the NAD+ concentration in living cells. It is found in the detection that the ratio decreased in cells treated with FK866, indicating a decrease in intracellular NAD+ concentration, while in the NRH-treated cells, the ratio increased, indicating an increase in intracellular NAD+ concentration.

Assay [2] addresses T1, NAD+ probe NADS2.0 (mNeoGreen mutant-LigA mutant-cpNluc mutant fusion), SEQ ID NO. 9; LigA mutant SEQ ID NO. 3 (Enterococcus faecalis, UniProt Q837V6, D286N/K120L/R163D/R68N).
T1 construct: purified BRET probe NADS2.0
Put plainly: NAD+ titration of purified BRET probe NADS2.0. It is filed as binding. The settings on record: 515/440 nm light intensity ratio. The text has this:
The sequence of NADS^2.0 is shown as SEQ ID NO. 9
mNeoGreen mutant-LigA mutant-cpNluc mutant
The sequence of LigA1 mutant is shown as SEQ ID NO.
(BRET reads energy transfer from a luciferase to a nearby fluorophore.)

The target in assay [3] is T2, NAD+ probe NADS3.0 (mScarlet mutant-LigA mutant-mNeoGreen mutant fusion), SEQ ID NO. 11; LigA mutant 1 SEQ ID NO. 3 (Enterococcus faecalis, UniProt Q837V6, D286N/K120L/R163D/R68N).
T2 construct: purified FRET probe NADS3.0
In words: NAD+ titration of purified FRET probe NADS3.0. The assay is classed as binding. Particulars: 585/515 nm ratio, excitation 470 nm. The text has this:
The sequence of NADS3.0 is shown as SEQ ID NO. 11
mScarlet mutant-LigA mutant-mNeoGreen mutant
The sequence of LigA mutant 1 is shown as SEQ ID NO.

The target in assay [4] is T3, NAD+ probe NADS1.2 (mScarlet mutant-LigA mutant-cpNluc mutant fusion), SEQ ID NO. 7; LigA mutant 1 (DNA ligase LigA mutant), SEQ ID NO. 3 (Enterococcus faecalis, UniProt Q837V6, D286N/K120L/R163D/R68N).
T3 construct: purified BRET probe NADS1.2
Put plainly: Response of NAD+ molecular probe NADS1.2 to NAD+ and different NAD+ analogs. The settings on record: for dynamic range of probe response / response of probe: NADS1.2, NAD+ analogs, 590/440 nm ratio; for dynamic range of probe response: in words. It is filed as binding.

Assay [5] relates to NAD+ molecular probe NAD1.2. In words: Response of NAD+ molecular probe to different NAD+ analogs (590/440 ratio titration). It is filed as biochemical. The settings on record: FIG. 4. The method, then:
(2) Add 80 μL of probe solution, 10 μL of NAD+ solution or 10 μL of NAD+ analogs solution, and 10 μL of bioluminescent substrate solution into the white 96-well elisa plate, blowing, suction, and mix immediately several times (at least 8 times) with multi-channel pipette; use Flex Station3 multifunctional microplate reader to read the light intensity values at the wavelengths of 440 nm and 590 nm under the luminescence mode, and monitor the values for 5 min continuously, and the average receptor-to-donor luminescence ratio is calculated for this time period.

T3 sequence (Q837V6 6-317 R68N/K120L/R163D/D286N): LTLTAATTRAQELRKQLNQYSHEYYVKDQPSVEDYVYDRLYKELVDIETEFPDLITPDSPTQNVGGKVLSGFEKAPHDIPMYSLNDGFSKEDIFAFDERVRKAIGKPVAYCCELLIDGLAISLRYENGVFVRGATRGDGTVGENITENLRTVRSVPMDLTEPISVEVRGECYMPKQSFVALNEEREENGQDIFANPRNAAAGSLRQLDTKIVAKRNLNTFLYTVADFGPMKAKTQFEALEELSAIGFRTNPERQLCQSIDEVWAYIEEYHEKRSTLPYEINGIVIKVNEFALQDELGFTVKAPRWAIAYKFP
T2 sequence (Q837V6 6-317 R68N/K120L/R163D/D286N): as above
T1 sequence (Q837V6 6-317 R68N/K120L/R163D/D286N): as above

For the compound `O=C(/C=C/c1cccnc1)NCCCCC1CCN(C(=O)c2ccccc2)CC1` [FK866], the “ratio of emitted light intensity at 590 nm and 440 nm (indicates intracellular NAD+ concentration)” value in assay [1] is reported as “decreased”.

Turning to `NC(=O)c1ccc[n+]([C@@H]2O[C@H](COP(=O)([O-])OP(=O)(O)OC[C@H]3O[C@@H](n4cnc5c(N)ncnc54)[C@H](O)[C@@H]3O)[C@@H](O)[C@H]2O)c1` [NAD+], the figures for the dynamic range in assay [2] and in assay [3] were 1.8 fold and 1.21 fold, respectively.

For the compound `NC(=O)C1=CN([C@@H]2O[C@H](COP(=O)(O)OP(=O)(O)OC[C@H]3O[C@@H](n4cnc5c(N)ncnc54)[C@H](O)[C@@H]3O)[C@@H](O)[C@H]2O)C=CC1` [NADH], the EC50 (usually the concentration needed to bring the measured effect to its halfway point) in assay [4] is above 1000 µM.

For `NC(=O)c1ccc[n+]([C@@H]2O[C@H](COP(=O)([O-])OP(=O)(O)OC[C@H]3O[C@@H](n4cnc5c(N)ncnc54)[C@H](OP(=O)(O)O)[C@@H]3O)[C@@H](O)[C@H]2O)c1` [NADP+], the “dynamic range of the probe response to the analog” value in assay [5] is listed as “small”. Also, the “dynamic range of probe response” value in assay [4] was “small dynamic range”. As for `NC(=O)C1=CN([C@@H]2O[C@H](COP(=O)(O)OP(=O)(O)OC[C@H]3O[C@@H](n4cnc5c(N)ncnc54)[C@H](OP(=O)(O)O)[C@@H]3O)[C@@H](O)[C@H]2O)C=CC1` [NADPH], the response of probe result in assay [4] is listed as “did not respond”. The same measure, in the same setting: next, `NC(=O)c1cccnc1` [NAM]: “did not respond”.

On to `NC(=O)c1ccc[n+]([C@@H]2O[C@H](COP(=O)([O-])O)[C@@H](O)[C@H]2O)c1` [NMN], for which, in assay [5], the “dynamic range of the probe response to the analog” value is “small”. For the same compound, in assay [4], the “dynamic range of probe response” value is “small dynamic range”.
